From US8829007B2 (priority 2009, dated 2014)

test system: influenza A virus (A/PR/8/34); assay: microbe, parasite or virus in culture; type: cell-based; settings: Influenza A virus, PR/8, MDCK, MDCK cells infected with A/PR/8/34; survival of infected cells; class symbols; read-out: IC50 (mean all)

`O=C(OCC1CCOC1)N1CC[C@H](Nc2nc(-c3c[nH]c4ncc(Cl)cc34)ncc2F)C1` (stereo partly drawn) [Compound 484] and `CC(=O)N1CCC[C@H](Nc2ccnc(-c3c[nH]c4ncc(Cl)cc34)n2)C1` [Compound 485] fall in the same range of IC50: 5 to 20 µM for the first, 5 to 20 µM for the second.

First: COC(=O)CCC(=O)N1CCCC(Nc2ccnc(-c3c[nH]c4ncc(Cl)cc34)n2)C1 [Compound 487, (S)-methyl 4-(3-((2-(5-chloro-1H-pyrrolo[2,3-b]pyridin-3-yl)pyrimidin-4-ylamino)piperidin-1-yl)-4-oxobutanoate]
Second: CC(C)CC(=O)N1CCC[C@H](Nc2ccnc(-c3c[nH]c4ncc(Cl)cc34)n2)C1 [Compound 489]
The IC50 of the first is higher: 5 to 20 µM for the first, < 5 µM for the second. The second is the more potent here.

same assay, conditions: Influenza A virus, PR/8, MDCK, mean all; A/PR/8/34 infected MDCK cells, CPE assay; read-out: IC50

Compared with `Fc1cnc(-c2c[nH]c3ncc(Cl)cc23)nc1NCC1CN(Cc2ccccc2)CCO1` (stereo not drawn) [Compound 388, N-((4-benzylmorpholin-2-yl)methyl)-2-(5-chloro-1H-pyrrolo[2,3-b]pyridin-3-yl)-5-fluoropyrimidin-4-amine], `CCC(=O)N1CCOC(CNc2nc(-c3c[nH]c4ncc(Cl)cc34)ncc2F)C1` (stereo not drawn) [Compound 449, 1-(2-((2-(5-chloro-1H-pyrrolo[2,3-b]pyridin-3-yl)-5-fluoropyrimidin-4-ylamino)methyl)morpholino)propan-1-one] is lower in IC50: > 20 µM for the first, 5 to 20 µM for the second. The second is the more potent here.

First: CCS(=O)(=O)N1CC[C@H](Nc2nc(-c3c[nH]c4ncc(Cl)cc34)ncc2F)C1 [Compound 399, (S)-2-(5-chloro-1H-pyrrolo[2,3-b]pyridin-3-yl)-N-(1-(ethylsulfonyl)pyrrolidin-3-yl)-5-fluoropyrimidin-4-amine]
Second: CCCS(=O)(=O)N1CC[C@H](Nc2nc(-c3c[nH]c4ncc(Cl)cc34)ncc2F)C1 [Compound 410, (S)-2-(5-chloro-1H-pyrrolo[2,3-b]pyridin-3-yl)-5-fluoro-N-(1-(propylsulfonyl)pyrrolidin-3-yl)pyrimidin-4-amine]
The IC50 of the first is lower: < 5 µM for the first, 5 to 20 µM for the second.

`CC(C)S(=O)(=O)N1CC[C@H](Nc2nc(-c3c[nH]c4ncc(Cl)cc34)ncc2F)C1` [Compound 400, (5)-2-(5-chloro-1H-pyrrolo[2,3-b]pyridin-3-yl)-5-fluoro-N-(1-(isopropylsulfonyl)pyrrolidin-3-yl)pyrimidin-4-amine] and `O=S(=O)(C1CC1)N1CC[C@H](Nc2nc(-c3c[nH]c4ncc(Cl)cc34)ncc2F)C1` [Compound 401, (S)-2-(5-chloro-1H-pyrrolo[2,3-b]pyridin-3-yl)-N-(1-(cyclopropylsulfonyl)pyrrolidin-3-yl)-5-fluoropyrimidin-4-amine] fall in the same range of IC50: 5 to 20 µM for the first, 5 to 20 µM for the second.

First: CCCCS(=O)(=O)N1CC[C@H](Nc2nc(-c3c[nH]c4ncc(Cl)cc34)ncc2F)C1 [Compound 402, (S)—N-(1-(butylsulfonyl)pyrrolidin-3-yl)-2-(5-chloro-1H-pyrrolo[2,3-b]pyridin-3-yl)-5-fluoropyrimidin-4-amine]
Second: O=S(=O)(CC1CCCC1)N1CC[C@H](Nc2nc(-c3c[nH]c4ncc(Cl)cc34)ncc2F)C1 [Compound 479, (S)-2-(5-chloro-1H-pyrrolo[2,3-b]pyridin-3-yl)-N-(1-(cyclopentylmethylsulfonyl)pyrrolidin-3-yl)-5-fluoropyrimidin-4-amine]
The IC50 of the first is lower: 5 to 20 µM for the first, > 20 µM for the second.

First: O=S(=O)(C1CCCC1)N1CC[C@H](Nc2nc(-c3c[nH]c4ncc(Cl)cc34)ncc2F)C1 [Compound 403, (S)-2-(5-chloro-1H-pyrrolo[2,3-b]pyridin-3-yl)-N-(1-(cyclopentylsulfonyl)pyrrolidin-3-yl)-5-fluoropyrimidin-4-amine]
Second: O=S(=O)(CC1CCCC1)N1CC(Nc2nc(-c3c[nH]c4ncc(Cl)cc34)ncc2F)C1 [Compound 469, 2-(5-chloro-1H-pyrrolo[2,3-b]pyridin-3-yl)-N-(1-(cyclopentyl-methylsulfonyl)azetidin-3-yl)-5-fluoropyrimidin-4-amine]
The IC50 of the first is lower: 5 to 20 µM for the first, > 20 µM for the second.

Compared with `Fc1cnc(-c2c[nH]c3ncc(Cl)cc23)nc1N[C@H]1CCN(CC2CC2)C1` [Compound 415, (S)-2-(5-chloro-1H-pyrrolo[2,3-b]pyridin-3-yl)-N-(1-(cyclopropylmethyl)pyrrolidin-3-yl)-5-fluoropyrimidin-4-amine], `O=C(C1CC1)N1CCC[C@H](Nc2nc(-c3c[nH]c4ncc(Cl)cc34)ncc2F)C1` [Compound 451] is lower in IC50: > 20 µM for the first, 5 to 20 µM for the second.

`O=C(OC1CCOC1)N1CC(Nc2nc(-c3c[nH]c4ncc(Cl)cc34)ncc2F)C1` [Compound 422, (S)-tetrahydrofuran-3-yl 3-((2-(5-chloro-1H-pyrrolo[2,3-b]pyridin-3-yl)-5-fluoropyrimidin-4-ylamino)azetidine-1-carboxylate] and `O=C(O[C@H]1CCOC1)N1CC[C@@H](Nc2nc(-c3c[nH]c4ncc(Cl)cc34)ncc2F)C1` [Compound 424] cannot be ordered by IC50: > 20 µM for the first, > 20 µM for the second.

Going from `CN(C)C(=O)N[C@H]1CCCC[C@@H]1Nc1nc(-c2c[nH]c3ncc(Cl)cc23)ncc1F` [Compound 427, 3-[(1S,2S)-2-[[2-(5-chloro-1H-pyrrolo[2,3-b]pyridin-3-yl)-5-fluoro-pyrimidin-4-yl]amino]cyclohexyl]-1,1-dimethyl-urea] to `CC(=O)N1CC[C@H](Nc2nc(-c3c[nH]c4ncc(Cl)cc34)ncc2F)C1` [Compound 480], the IC50 falls from > 20 µM to < 5 µM. The second is the more potent here.

First: CC(C)C(=O)N1CCC[C@H](Nc2nc(-c3c[nH]c4ncc(Cl)cc34)ncc2F)C1 [Compound 436]
Second: CC(C)OC(=O)N1CCC[C@H](Nc2nc(-c3c[nH]c4ncc(Cl)cc34)ncc2F)C1 [Compound 442]
The IC50 of the first is lower: < 5 µM for the first, 5 to 20 µM for the second.

First: CC(C)(C)C(=O)N1CCC[C@H](Nc2nc(-c3c[nH]c4ncc(Cl)cc34)ncc2F)C1 [Compound 437]
Second: CCOC(=O)N1CCC[C@H](Nc2nc(-c3c[nH]c4ncc(Cl)cc34)ncc2F)C1 [Compound 441]
The IC50 of the first is higher: > 20 µM for the first, 5 to 20 µM for the second. The second is the more potent here.

Compared with `CC1(C(=O)N2CCC[C@H](Nc3nc(-c4c[nH]c5ncc(Cl)cc45)ncc3F)C2)CC1` [Compound 445], `CC1(C(=O)N2CC[C@@H](Nc3nc(-c4c[nH]c5ncc(Cl)cc45)ncc3F)C2)COC1` [Compound 473] is higher in IC50: < 5 µM for the first, 5 to 20 µM for the second.

`CC(C)NC(=O)N1CCOC(CNc2nc(-c3c[nH]c4ncc(Cl)cc34)ncc2F)C1` (stereo not drawn) [Compound 446, 2-((2-(5-chloro-1H-pyrrolo[2,3-b]pyridin-3-yl)-5-fluoropyrimidin-4-ylamino)methyl)-N-isopropylmorpholine-4-carboxamide] and `CC(C)OC(=O)N1CCOC(CNc2nc(-c3c[nH]c4ncc(Cl)cc34)ncc2F)C1` (stereo not drawn) [Compound 447, Isopropyl 2-((2-(5-chloro-1H-pyrrolo[2,3-b]pyridin-3-yl)-5-fluoropyrimidin-4-ylamino)methyl)morpholine-4-carboxylate] cannot be ordered by IC50: > 20 µM for the first, > 20 µM for the second.

First: CC(C)S(=O)(=O)N1CCOC(CNc2nc(-c3c[nH]c4ncc(Cl)cc34)ncc2F)C1 (stereo not drawn) [Compound 448, 2-(5-chloro-1H-pyrrolo[2,3-b]pyridin-3-yl)-5-fluoro-N-((4-(isopropylsulfonyl)morpholin-2-yl)methyl)pyrimidin-4-amine]
Second: O=C(C1CC1)N1CCOC(CNc2nc(-c3c[nH]c4ncc(Cl)cc34)ncc2F)C1 (stereo not drawn) [Compound 450, (2-((2-(5-chloro-1H-pyrrolo[2,3-b]pyridin-3-yl)-5-fluoropyrimidin-4-ylamino)methyl)morpholino)(cyclopropyl)methanone]
The IC50 of the first is higher: > 20 µM for the first, 5 to 20 µM for the second.

`COCC(=O)N1CC(Nc2nc(-c3c[nH]c4ncc(Cl)cc34)ncc2F)C1` [Compound 468] and `COCC(=O)N1CC[C@H](Nc2nc(-c3c[nH]c4ncc(Cl)cc34)ncc2F)C1` [Compound 481] fall in the same range of IC50: 5 to 20 µM for the first, 5 to 20 µM for the second.

First: COC(=O)N1CC[C@H](Nc2nc(-c3c[nH]c4ncc(Cl)cc34)ncc2F)C1 [Compound 476]
Second: CC(C)OC(=O)N1CC[C@H](Nc2nc(-c3c[nH]c4ncc(Cl)cc34)ncc2F)C1 [Compound 477]
The IC50 of the first is lower: 5 to 20 µM for the first, > 20 µM for the second.

First: CC1(C(=O)N2CC[C@H](Nc3nc(-c4c[nH]c5ncc(Cl)cc45)ncc3F)C2)COC1 [Compound 482]
Second: O=C(C1CNCCO1)N1CC[C@H](Nc2nc(-c3c[nH]c4ncc(Cl)cc34)ncc2F)C1 (stereo partly drawn) [Compound 483]
The IC50 of the first is lower: < 5 µM for the first, > 20 µM for the second.

same assay, conditions: Influenza A virus, PR/8, MDCK; read-out: IC50

With `CCCS(=O)(=O)N1CC(Nc2nc(-c3c[nH]c4ncc(Cl)cc34)ncc2F)C1` [Compound 423] the IC50 was > 20 µM.

same assay, conditions: mean all; A/PR/8/34 infected MDCK cells, CPE assay; read-out: IC50

`CCCCS(=O)(=O)N1CCC(Nc2nc(-c3c[nH]c4ncc(Cl)cc34)ncc2F)C1` (stereo not drawn) [Compound 406] and `CCS(=O)(=O)N1CCC(Nc2nc(-c3c[nH]c4ncc(Cl)cc34)ncc2F)C1` (stereo not drawn) [Compound 407] cannot be ordered by IC50: > 20 µM for the first, > 20 µM for the second.

Compared with `CC(C)S(=O)(=O)N1CCC(Nc2nc(-c3c[nH]c4ncc(Cl)cc34)ncc2F)C1` (stereo not drawn) [Compound 408], `CC(=O)N1CCC(Nc2nc(-c3c[nH]c4ncc(Cl)cc34)ncc2F)C1` (stereo not drawn) [Compound 471] is lower in IC50: > 20 µM for the first, < 5 µM for the second. The second is the more potent here.

First: O=C(OC1CCOC1)N1CCC(Nc2nc(-c3c[nH]c4ncc(Cl)cc34)ncc2F)CC1 (stereo not drawn) [Compound 420]
Second: O=C(OC1CCOC1)N1CCC(Nc2nc(-c3c[nH]c4ncc(Cl)cc34)ncc2F)C1 (stereo not drawn) [Compound 421]
The IC50 of the first is higher: > 20 µM for the first, 5 to 20 µM for the second.

First: CC(=O)NC1CCCCC1Nc1nc(-c2c[nH]c3ncc(Cl)cc23)ncc1F (stereo not drawn) [Compound 429]
Second: O=C(C1CCOC1)N1CCC(Nc2nc(-c3c[nH]c4ncc(Cl)cc34)ncc2F)C1 (stereo not drawn) [Compound 467]
The IC50 of the first is lower: 5 to 20 µM for the first, > 20 µM for the second.

`CC(C)S(=O)(=O)N1CCCC(Nc2ccnc(-c3c[nH]c4ncc(Cl)cc34)n2)C1` (stereo not drawn) [Compound 465] and `CS(=O)(=O)N1CCCC(Nc2ccnc(-c3c[nH]c4ncc(Cl)cc34)n2)C1` (stereo not drawn) [Compound 466] fall in the same range of IC50: 5 to 20 µM for the first, 5 to 20 µM for the second.

With `O=C(OCC1CCOC1)N1CCC(Nc2nc(-c3c[nH]c4ncc(Cl)cc34)ncc2F)C1` (stereo not drawn) [Compound 475] the IC50 was > 20 µM.

same assay, conditions: read-out: IC50

Compound `O=C(C1CCOC1)N1CC[C@H](Nc2nc(-c3c[nH]c4ncc(Cl)cc34)ncc2F)C1` (stereo partly drawn) [Compound 478] has an IC50 of 5 to 20 µM.

same assay, conditions: read-out: IC50 (mean all)

Compared with `COCC(=O)N1CCC[C@H](Nc2nc(-c3c[nH]c4ncc(Cl)cc34)ncc2F)C1` [Compound 486], `COCCC(=O)N1CCC[C@H](Nc2nc(-c3c[nH]c4ncc(Cl)cc34)ncc2F)C1` [Compound 488] is higher in IC50: 5 to 20 µM for the first, > 20 µM for the second. The first is the more potent here.
